This is an account of results in ChEMBL document CHEMBL4825704, “Withanolide Derivative 2,3-Dihydro-3β-methoxy Withaferin-A Modulates the Circadian Clock via Interaction with RAR-Related Orphan Receptor α (RORa)” (J Nat Prod, 2021).

Activity calls are given as the source filed them. The rule behind the calls is not given here.

In assay [1] the test system is Sarcoma-180. The assay can be described thus: Transcriptional upregulation of Bmal1 mRNA expression in dexamethasone-induced mouse Sarcoma-180 cells at 5 uM measured after 24 hrs by RT-qPCR analysis relative to control. It is filed as functional. (In general: Real-time PCR tracks product formation cycle by cycle.)
The test system of assay [2] is NIH3T3. Put plainly: Elongation of circadian rhythms in dexamethasone-induced mouse NIH3T3 cells assessed as increase in Bmal1 period time at 1 uM measured for 1 mins at 10 min interval up to 96 hrs by dual luciferase reporter gene assay (reference value: 25.02 +/- 0.15 hrs). To be noted: time hrs <=96. It is filed as functional. Background: Reporter assays use an easily measured gene product as a stand-in for the process of interest.

Assay [3] relates to MEF. The assay can be described thus: Elongation of circadian rhythms in dexamethasone-induced mouse embryonic fibroblasts expressing PER2-luc gene assessed as increase in PER2 period time at 5 uM measured for 1 mins at 10 min interval up to 96 hrs by bioluminescence based PER2 promoter-reporter gene assay (reference value: 23.17 +/- 0.10 hrs). It is filed as functional. The settings on record: time hrs <=96.

In assay [4] the test system is NIH3T3. Put plainly: Elongation of circadian rhythms in dexamethasone-induced mouse NIH3T3 cells assessed as increase in Bmal1 period time at 5 uM measured for 1 mins at 10 min interval up to 96 hrs by dual luciferase reporter gene assay (reference value: 25.02 +/- 0.15 hrs). It is filed as functional. To be noted: time hrs <=96.
For assay [5], the system named is Sarcoma-180. The assay can be described thus: Transcriptional upregulation of Bmal1 mRNA expression in dexamethasone-induced mouse Sarcoma-180 cells at 1 uM measured after 24 hrs by RT-qPCR analysis relative to control. The format is functional.
Assay [6] has as its system Sarcoma-180. Put plainly: Cytotoxicity against mouse Sarcoma-180 cells assessed as reduction in cell proliferation at 1 uM measured up to 5 days by WST-8 assay. The format is functional, cell-based. The settings on record: time day <=5. (Formazan colour is commonly taken as a measure of viable cells.)
The subject of assay [7] is Sarcoma-180. The assay can be described thus: Elongation of circadian rhythms in dexamethasone-induced mouse Sarcoma-180 cells assessed as increase in Bmal1 period length measured for 1 mins at 10 min interval up to 96 hrs by bioluminescence based Bmal1 promoter-reporter gene assay. It is filed as functional, cell-based. The settings on record: dose 1-5 µM, time hrs <=96.

Assay [8] can be described thus: Induction of Bmal1 promotor activity in dexamethasone-induced mouse NIH3T3 cells transfected with Bmal1 promotor-reporter plasmids at 15 uM measured after 24 hrs by bioluminescence assay relative to control. It is filed as functional.
For assay [9], the system named is MEF. Put plainly: Elongation of circadian rhythms in dexamethasone-induced mouse embryonic fibroblasts expressing PER2-luc gene assessed as increase in PER2 period time at 25 uM measured for 1 mins at 10 min interval up to 96 hrs by bioluminescence based PER2 promoter-reporter gene assay (reference value: 23.17 +/- 0.10 hrs). The settings on record: time hrs <=96. The format is functional.

Assay [10] has as its system NIH3T3. Put plainly: Transcriptional upregulation of Bmal1 mRNA expression in dexamethasone-induced mouse NIH3T3 cells at 1 uM measured after 24 hrs by RT-qPCR analysis relative to control. It is filed as functional.
Assay [11] has as its target T1, Nuclear receptor ROR-alpha (Mus musculus, UniProt P51448).
T1 sequence (P51448 whole entry): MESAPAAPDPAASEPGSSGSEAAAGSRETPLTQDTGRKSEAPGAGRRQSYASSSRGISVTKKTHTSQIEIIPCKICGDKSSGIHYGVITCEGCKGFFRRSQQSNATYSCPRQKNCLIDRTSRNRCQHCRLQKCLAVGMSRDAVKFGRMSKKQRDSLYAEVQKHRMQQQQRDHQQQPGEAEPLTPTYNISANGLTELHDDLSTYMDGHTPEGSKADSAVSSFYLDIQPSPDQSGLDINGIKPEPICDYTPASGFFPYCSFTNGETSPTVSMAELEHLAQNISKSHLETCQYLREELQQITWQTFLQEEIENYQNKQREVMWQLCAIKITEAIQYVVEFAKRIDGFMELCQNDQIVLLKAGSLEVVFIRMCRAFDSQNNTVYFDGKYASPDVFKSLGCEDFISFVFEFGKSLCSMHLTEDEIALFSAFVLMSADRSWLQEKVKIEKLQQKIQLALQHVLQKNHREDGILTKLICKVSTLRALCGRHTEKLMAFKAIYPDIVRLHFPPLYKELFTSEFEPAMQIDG
The assay can be described thus: Inverse agonist activity at RORalpha in mouse NIH3T3 cells incubated for 24 hrs by luminescence based assay. It is filed as cell-based.

Assay [12] deals with Sarcoma-180. Put plainly: Cytotoxicity against mouse Sarcoma-180 cells assessed as reduction in cell proliferation at 5 uM measured up to 5 days by WST-8 assay. To be noted: time day <=5. The format is functional, cell-based.
The subject of assay [13] is MEF. The assay can be described thus: Elongation of circadian rhythms in dexamethasone-induced mouse embryonic fibroblasts expressing PER2-luc gene assessed as increase in PER2 period time at 1 uM measured for 1 mins at 10 min interval up to 96 hrs by bioluminescence based PER2 promoter-reporter gene assay (reference value: 23.17 +/- 0.10 hrs). The format is functional. The settings on record: time hrs <=96.

In assay [14] the test system is Sarcoma-180. Put plainly: Cytotoxicity against mouse Sarcoma-180 cells assessed as reduction in cell proliferation by measuring growth rate at 1 uM measured after 3 days by WST-8 assay relative to control. Set-up: scale not given: the % may be the effect or the level left. The format is functional.
Assay [15] has as its system MEF. Put plainly: Elongation of circadian rhythms in dexamethasone-induced mouse embryonic fibroblasts expressing PER2-luc gene assessed as increase in PER2 period time at 1.67 uM measured for 1 mins at 10 min interval up to 96 hrs by bioluminescence based PER2 promoter-reporter gene assay (reference value: 23.17 +/- 0.10 hrs). The format is functional. To be noted: time hrs <=96.

For assay [16], the system named is Sarcoma-180. Put plainly: Elongation of circadian rhythms in dexamethasone-induced mouse Sarcoma-180 cells assessed as increase in Bmal1 period time at 5 uM measured for 1 mins at 10 min interval up to 96 hrs by bioluminescence based Bmal1 promoter-reporter gene assay (reference value: 25.70 +/- 0.30 hrs). The format is functional. To be noted: time hrs <=96.

A short description of assay [17]: Induction of Bmal1 promotor activity in dexamethasone-induced mouse NIH3T3 cells transfected with Bmal1 promotor-reporter plasmids at 5 uM measured after 24 hrs by bioluminescence assay relative to control. The format is functional.
Assay [18] deals with NIH3T3. Put plainly: Transcriptional upregulation of […] mRNA expression in dexamethasone-induced mouse NIH3T3 cells at 15 uM measured after 24 hrs by qPCR analysis relative to control. The format is functional.
The test system of assay [19] is NIH3T3. The assay can be described thus: Transcriptional upregulation of […] mRNA expression in dexamethasone-induced mouse NIH3T3 cells at 5 uM measured after 24 hrs by qPCR analysis relative to control. The format is functional.
The test system of assay [20] is NIH3T3. The assay can be described thus: Transcriptional upregulation of Bmal1 mRNA expression in dexamethasone-induced mouse NIH3T3 cells at 5 uM measured after 24 hrs by RT-qPCR analysis relative to control. The format is functional.
Assay [21] relates to NIH3T3. The assay can be described thus: Transcriptional upregulation of Rora mRNA expression in dexamethasone-induced mouse NIH3T3 cells at 5 uM measured after 24 hrs by qPCR analysis relative to control. It is filed as functional.
Assay [22] concerns Sarcoma-180. Put plainly: Elongation of circadian rhythms in dexamethasone-induced mouse Sarcoma-180 cells assessed as increase in Bmal1 period length at 1 to 5 uM measured for 1 mins at 10 min interval up to 96 hrs by bioluminescence based Bmal1 promoter-reporter gene assay. The format is functional, cell-based. The settings on record: dose 1-5 µM, time hrs <=96.
Assay [23] relates to NIH3T3. The assay can be described thus: Transcriptional upregulation of Rora mRNA expression in dexamethasone-induced mouse NIH3T3 cells at 15 uM measured after 24 hrs by qPCR analysis relative to control. It is filed as functional.
Assay [24] has as its target T2, Nuclear receptor ROR-alpha (Mus musculus) (UniProt P51448).
T2 sequence (whole entry): T1 sequence (P51448 whole entry)
The assay can be described thus: Agonist activity at RORalpha in mouse NIH3T3 cells at 1 to 1000 uM incubated for 24 hrs by luminescence based assay. It is filed as cell-based. To be noted: dose 1-1000 µM.

In the case of `CO[C@H]1CC(=O)[C@]2(C)[C@H]3CC[C@]4(C)[C@@H]([C@H](C)[C@H]5CC(C)=C(CO)C(=O)O5)CC[C@H]4[C@@H]3C[C@H]3O[C@]32[C@H]1O`, the “fold change (FC)” value came to 2.13 with Sarcoma-180 [1]; 1.34 in the assay with Sarcoma-180 [5]; 1.83 in [8]; 1.32 in assay [17]; 1.57 in the assay on NIH3T3 [18]; 1.2 in the assay on NIH3T3 [19]. Moreover, the “fold change (FC)” value with NIH3T3 [21] is on record as 1.61; in the assay with NIH3T3 [23], 1.68. Besides, the Time with NIH3T3 [2] was found to be 25.01 h; with MEF [3] it was 25.36 h; with NIH3T3 [4], 26.06 h; with MEF [9] it was 26.11 h; in the assay with MEF [13], 22.98 h; with MEF [15], 24.17 h. For the same compound, in the assay with Sarcoma-180 [16], the Time worked out at 31.7 h. Moreover, the result in the assay with Sarcoma-180 [6], in the assay with Sarcoma-180 [12] and with Sarcoma-180 [22] was Active. In addition, the Activity result in the assay on Sarcoma-180 [7] is “Dose-Dependent Effect”; with NIH3T3 [10], 1.43 fold change; in the assay with Sarcoma-180 [14] (time 3 day), 59.8%; with NIH3T3 [20], 1.75 fold change. In addition, in [11], the half-maximal inhibitory concentration (IC50) amounted to 11.3 µM.

Regarding `CC(C)CCC[C@@H](C)[C@H]1CC[C@H]2C3=CC=C4C[C@@H](O)CC[C@]4(C)[C@H]3CC[C@]12C`, the result in assay [24] (filed as agonist) was Active.

Turning to `CC1=C(CO)C(=O)O[C@@H]([C@@H](C)[C@H]2CC[C@H]3[C@@H]4C[C@H]5O[C@]56[C@@H](O)C=CC(=O)[C@]6(C)[C@H]4CC[C@]23C)C1`, the outcome with Sarcoma-180 [6], with Sarcoma-180 [14] (time 3.0 day) and with Sarcoma-180 [16] was Active. Moreover, the result in [24] was inactive.

As a reminder, the IC50 is the point on the concentration scale where inhibition reaches its midpoint.
